Test system: MV-4-11 cells
Test: Gene expression microarray analysis (Affymetrix PrimeView) and GSEA
Type: cell-based, human
Set-up: RFU PODN (11730768_x_at) / Fold change /veh PODN (11730768_x_at) / RFU LINC00158 (11744669_a_at) / Fold change /veh LINC00158 (11744669_a_at) / RFU DUSP10 (11751237_a_at) / Fold change /veh DUSP10 (11751237_a_at) / RFU ID3 (11757404_x_at) / Fold change /veh ID3 (11757404_x_at) / RFU PLEKHG5 (11737974_s_at) / Fold change /veh PLEKHG5 (11737974_s_at) / RFU LRRC4B (11730491_at) / Fold change /veh LRRC4B (11730491_at) / RFU GIMAP4 (11747438_a_at) / Fold change /veh GIMAP4 (11747438_a_at) / RFU KRT8 (11758183_x_at) / Fold change /veh KRT8 (11758183_x_at) / RFU CNN1 (11734310_a_at) / Fold change /veh CNN1 (11734310_a_at) / RFU VPS37D (11726825_at) / Fold change /veh VPS37D (11726825_at) / RFU C10orf10 (11716522_x_at) / Fold change /veh C10orf10 (11716522_x_at) / RFU KIR2DL2 /// KIR2DL4 /// KIR2DL5A /// KIR2DL5B /// KIR2DS1 /// KIR2DS2 /// KIR2DS3 /// KIR2DS4 /// KIR3DL3 /// KIR3DL3 /// KIR3DS1 (11738374_at) / Fold change /veh KIR2DL2 /// KIR2DL4 /// KIR2DL5A /// KIR2DL5B /// KIR2DS1 /// KIR2DS2 /// KIR2DS3 /// KIR2DS4 /// KIR3DL3 /// KIR3DL3 /// KIR3DS1 (11738374_at) / RFU C1QL1 (11718748_at) / Fold change /veh C1QL1 (11718748_at) / RFU TMPRSS4 (11747572_a_at) / Fold change /veh TMPRSS4 (11747572_a_at) / RFU HAMP (11756126_x_at) / Fold change /veh HAMP (11756126_x_at) / RFU RNFT2 (11725882_a_at) / Fold change /veh RNFT2 (11725882_a_at) / RFU NR4A2 (11747474_a_at) / Fold change /veh NR4A2 (11747474_a_at) / RFU ABCC12 (11746883_a_at) / Fold change /veh ABCC12 (11746883_a_at) / RFU TMEM136 (11760407_x_at) / Fold change /veh TMEM136 (11760407_x_at) / RFU CLDN22 /// WWC2 (11732394_at) / Fold change /veh CLDN22 /// WWC2 (11732394_at) / RFU HLA-DPB1 (11760878_x_at) / Fold change /veh HLA-DPB1 (11760878_x_at) / RFU SPINT1 (11716480_a_at) / Fold change /veh SPINT1 (11716480_a_at) / RFU GAP43 (11754022_s_at) / Fold change /veh GAP43 (11754022_s_at) / RFU A4GNT (11735810_at) / Fold change /veh A4GNT (11735810_at) / RFU PRB3 (11715151_x_at) / Fold change /veh PRB3 (11715151_x_at) / RFU TUBB4B (11761932_at) / Fold change /veh TUBB4B (11761932_at) / RFU CAPN14 (11732068_a_at) / Fold change /veh CAPN14 (11732068_a_at) / RFU TMCC2 (11721928_a_at) / Fold change /veh TMCC2 (11721928_a_at) / RFU IRGQ (11745062_a_at) / Fold change /veh IRGQ (11745062_a_at) / RFU FAM174B (11720279_a_at) / Fold change /veh FAM174B (11720279_a_at) / RFU TMPRSS4 (11748680_a_at) / Fold change /veh TMPRSS4 (11748680_a_at) / RFU FAM212B (11763350_a_at) / Fold change /veh FAM212B (11763350_a_at) / RFU PLEKHG5 (11743358_a_at) / Fold change /veh PLEKHG5 (11743358_a_at) / RFU ZSCAN30 (11745921_a_at) / Fold change /veh ZSCAN30 (11745921_a_at) / RFU CMKLR1 (11741424_a_at) / Fold change /veh CMKLR1 (11741424_a_at) / RFU LOC101060620 /// MAPK8IP1 (11723275_at) / Fold change /veh LOC101060620 /// MAPK8IP1 (11723275_at) / RFU SPTSSB (11747773_x_at) / Fold change /veh SPTSSB (11747773_x_at) / RFU PRSS12 (11739890_at) / Fold change /veh PRSS12 (11739890_at) / RFU BIN1 (11741810_x_at) / Fold change /veh BIN1 (11741810_x_at) / RFU WNT11 (11732464_a_at) / Fold change /veh WNT11 (11732464_a_at) / RFU C10orf10 (11716521_a_at) / Fold change /veh C10orf10 (11716521_a_at) / RFU C5orf56 (11738089_at) / Fold change /veh C5orf56 (11738089_at) / RFU CYB561 (11721691_x_at) / Fold change /veh CYB561 (11721691_x_at) / RFU ANKRD19P (11752326_a_at) / Fold change /veh ANKRD19P (11752326_a_at) / RFU OR2T12 /// OR2T33 /// OR2T8 (11738714_s_at) / Fold change /veh OR2T12 /// OR2T33 /// OR2T8 (11738714_s_at) / RFU VCAN (11748164_a_at) / Fold change /veh VCAN (11748164_a_at) / RFU JSRP1 (11732532_at) / Fold change /veh JSRP1 (11732532_at) / RFU KRTAP10-11 (11738290_x_at) / Fold change /veh KRTAP10-11 (11738290_x_at) / RFU MYO3A (11730013_a_at) / Fold change /veh MYO3A (11730013_a_at) / RFU EBF3 (11725865_a_at) / Fold change /veh EBF3 (11725865_a_at) / RFU CAMK2N1 (11719241_x_at) / Fold change /veh CAMK2N1 (11719241_x_at) / RFU C5orf56 (11738088_a_at) / Fold change /veh C5orf56 (11738088_a_at) / RFU OLFML3 (11715873_a_at) / Fold change /veh OLFML3 (11715873_a_at) / RFU LOC100653217 /// NTM (11731650_a_at) / Fold change /veh LOC100653217 /// NTM (11731650_a_at) / RFU MAPK11 (11762145_a_at) / Fold change /veh MAPK11 (11762145_a_at) / RFU FIZ1 (11724087_x_at) / Fold change /veh FIZ1 (11724087_x_at) / RFU OASL (11726364_x_at) / Fold change /veh OASL (11726364_x_at) / RFU SOX15 (11748057_x_at) / Fold change /veh SOX15 (11748057_x_at) / RFU CD79A (11719716_a_at) / Fold change /veh CD79A (11719716_a_at) / RFU HIST1H1D (11736915_at) / Fold change /veh HIST1H1D (11736915_at) / RFU CASKIN2 (11723855_a_at) / Fold change /veh CASKIN2 (11723855_a_at) / RFU LOC730098 (11760151_x_at) / Fold change /veh LOC730098 (11760151_x_at) / RFU OR4N2 (11742367_at) / Fold change /veh OR4N2 (11742367_at) / RFU PRRT2 (11749266_a_at) / Fold change /veh PRRT2 (11749266_a_at) / RFU SNX32 (11753110_a_at) / Fold change /veh SNX32 (11753110_a_at) / RFU CDHR5 (11726645_a_at) / Fold change /veh CDHR5 (11726645_a_at) / RFU RCAN1 (11760418_a_at) / Fold change /veh RCAN1 (11760418_a_at) / RFU FAM167A (11723789_a_at) / Fold change /veh FAM167A (11723789_a_at) / RFU FAM26E (11764081_at) / Fold change /veh FAM26E (11764081_at) / RFU ISYNA1 (11749810_s_at) / Fold change /veh ISYNA1 (11749810_s_at) / RFU ACY1 (11761880_at) / Fold change /veh ACY1 (11761880_at) / RFU 11764098_at / Fold change /veh 11764098_at / RFU SAMD14 (11745864_x_at) / Fold change /veh SAMD14 (11745864_x_at) / RFU NPB (11741838_a_at) / Fold change /veh NPB (11741838_a_at) / RFU TMPRSS6 (11731388_a_at) / Fold change /veh TMPRSS6 (11731388_a_at) / RFU KRTAP10-2 (11738614_at) / Fold change /veh KRTAP10-2 (11738614_at) / RFU ARHGAP8 /// PRR5-ARHGAP8 (11727945_x_at) / Fold change /veh ARHGAP8 /// PRR5-ARHGAP8 (11727945_x_at) / RFU KRTAP5-7 /// NADSYN1 (11734609_at) / Fold change /veh KRTAP5-7 /// NADSYN1 (11734609_at) / RFU RASL12 (11751679_a_at) / Fold change /veh RASL12 (11751679_a_at) / RFU CDKN2B (11736163_a_at) / Fold change /veh CDKN2B (11736163_a_at) / RFU PRF1 (11729649_at) / Fold change /veh PRF1 (11729649_at) / RFU, ZNF638 /// ZNF638-IT1 / Fold change vs veh, ZNF638 /// ZNF638-IT1 / RFU, PANK3 / Fold change vs veh, PANK3 / RFU, SH3YL1 / Fold change vs veh, SH3YL1 / RFU, ZEB2 / Fold change vs veh, ZEB2 / RFU, NRIP1 / Fold change vs veh, NRIP1 / RFU, PTTG1IP / Fold change vs veh, PTTG1IP / RFU, CAPN2 / Fold change vs veh, CAPN2 / RFU, MED14 / Fold change vs veh, MED14 / RFU, SNORA58 / Fold change vs veh, SNORA58 / RFU, C1orf63 / Fold change vs veh, C1orf63 / RFU, LRRFIP1 / Fold change vs veh, LRRFIP1 / RFU, NDUFAF7 / Fold change vs veh, NDUFAF7 / RFU, SLC12A2 / Fold change vs veh, SLC12A2 / RFU, IBTK / Fold change vs veh, IBTK / RFU, ESF1 / Fold change vs veh, ESF1 / Fold change vs veh, TMEM50B / RFU, TAOK1 / Fold change vs veh, TAOK1 / RFU, ACBD3 / Fold change vs veh, ACBD3 / RFU, TMA16 / Fold change vs veh, TMA16 / RFU, RWDD3 / Fold change vs veh, RWDD3 / RFU, BCAT1 / Fold change vs veh, BCAT1 / RFU, EDEM3 / Fold change vs veh, EDEM3 / RFU, TMEM33 / Fold change vs veh, TMEM33 / RFU, WDR75 / Fold change vs veh, WDR75 / RFU, AHCTF1 / Fold change vs veh, AHCTF1 / RFU, TFRC / Fold change vs veh, TFRC / RFU, ZDHHC17 / Fold change vs veh, ZDHHC17 / RFU, NOM1 / Fold change vs veh, NOM1 / RFU, ARL8B / Fold change vs veh, ARL8B / RFU, ZBTB11 / Fold change vs veh, ZBTB11 / RFU, TAMM41 / Fold change vs veh, TAMM41 / RFU, KIAA1704 /// LOC100996395 / Fold change vs veh, KIAA1704 /// LOC100996395 / RFU, ING1 / Fold change vs veh, ING1 / RFU, TRMT61B / Fold change vs veh, TRMT61B / RFU, FUBP3 / Fold change vs veh, FUBP3 / RFU, TP53 / Fold change vs veh, TP53 / RFU, TNKS2 / Fold change vs veh, TNKS2 / RFU, ZFP14 / Fold change vs veh, ZFP14 / RFU, ACTR2 / Fold change vs veh, ACTR2 / RFU, PPP3R1 / Fold change vs veh, PPP3R1 / RFU, PIK3R1 / Fold change vs veh, PIK3R1 / RFU, HNRNPA1 / Fold change vs veh, HNRNPA1 / RFU, RNF170 / Fold change vs veh, RNF170 / RFU, ZNF28 / Fold change vs veh, ZNF28 / RFU, RNGTT / Fold change vs veh, RNGTT / RFU, OGT / Fold change vs veh, OGT / RFU, BRD1 / Fold change vs veh, BRD1 / RFU, MARS / Fold change vs veh, MARS / RFU, ZNF655 / Fold change vs veh, ZNF655 / RFU, FAHD1 / Fold change vs veh, FAHD1 / RFU, BDP1 / Fold change vs veh, BDP1 / RFU, LRRCC1 / Fold change vs veh, LRRCC1 / RFU, ARID1A / Fold change vs veh, ARID1A / RFU, ZNF146 / Fold change vs veh, ZNF146 / RFU, ZNF330 / Fold change vs veh, ZNF330 / RFU, GPN3 / Fold change vs veh, GPN3 / RFU, C9orf123 / Fold change vs veh, C9orf123 / RFU, N4BP2L2 / Fold change vs veh, N4BP2L2 / RFU, ARFIP1 / Fold change vs veh, ARFIP1 / RFU, FAM179B / Fold change vs veh, FAM179B / RFU, BCL10 / Fold change vs veh, BCL10 / RFU, UHRF1BP1L / Fold change vs veh, UHRF1BP1L / RFU, BET1 / Fold change vs veh, BET1 / RFU, CNOT2 / Fold change vs veh, CNOT2 / RFU, ZNF268 / Fold change vs veh, ZNF268 / Fold change vs veh, ZNF507 / RFU, DGCR2 / Fold change vs veh, DGCR2 / RFU, WDSUB1 / Fold change vs veh, WDSUB1 / Fold change vs veh, HSP90B1 /// MIR3652 / RFU, ADSS / Fold change vs veh, ADSS / RFU, GK / Fold change vs veh, GK / RFU, ZNF148 / Fold change vs veh, ZNF148 / RFU, TAF9 / Fold change vs veh, TAF9 / RFU, SLC1A5 / Fold change vs veh, SLC1A5 / RFU, SLMO2 / Fold change vs veh, SLMO2 / RFU, ABCC4 / Fold change vs veh, ABCC4 / RFU, LOC101060439 /// RAP1B / Fold change vs veh, LOC101060439 /// RAP1B / RFU, RFX7 / Fold change vs veh, RFX7 / RFU, GTPBP10 / Fold change vs veh, GTPBP10 / RFU, CNEP1R1 / Fold change vs veh, CNEP1R1 / RFU, BIVM-ERCC5 /// ERCC5 / Fold change vs veh, BIVM-ERCC5 /// ERCC5 / RFU, ILF3 / Fold change vs veh, ILF3 / RFU 11762660_at / Fold change /veh 11762660_at / RFU VCAN (11757783_s_at) / Fold change /veh VCAN (11757783_s_at) / RFU DDX43 (11728927_at) / Fold change /veh DDX43 (11728927_at) / RFU KRT8 (11758188_x_at) / Fold change /veh KRT8 (11758188_x_at) / RFU NKD1 (11759106_at) / Fold change /veh NKD1 (11759106_at) / RFU SRD5A1 (11742802_a_at) / Fold change /veh SRD5A1 (11742802_a_at) / RFU TPSAB1 /// TPSB2 (11721975_s_at) / Fold change /veh TPSAB1 /// TPSB2 (11721975_s_at) / RFU GSTM3 (11746129_a_at) / Fold change /veh GSTM3 (11746129_a_at) / RFU IL23R (11737362_x_at) / Fold change /veh IL23R (11737362_x_at) / RFU TMEM51 (11727254_a_at) / Fold change /veh TMEM51 (11727254_a_at) / RFU PIWIL2 (11732686_x_at) / Fold change /veh PIWIL2 (11732686_x_at) / RFU ORM1 (11744905_x_at) / Fold change /veh ORM1 (11744905_x_at) / RFU CCDC152 (11743942_at) / Fold change /veh CCDC152 (11743942_at) / RFU ECM1 (11717891_a_at) / Fold change /veh ECM1 (11717891_a_at) / RFU IL23R (11748794_a_at) / Fold change /veh IL23R (11748794_a_at) / RFU TNFAIP8L3 (11732012_x_at) / Fold change /veh TNFAIP8L3 (11732012_x_at) / RFU MBOAT4 (11741988_at) / Fold change /veh MBOAT4 (11741988_at) / RFU 11764193_at / Fold change /veh 11764193_at / RFU TMEM53 (11763286_at) / Fold change /veh TMEM53 (11763286_at) / RFU MAGEB2 (11727129_at) / Fold change /veh MAGEB2 (11727129_at) / RFU TMEM200A (11744735_a_at) / Fold change /veh TMEM200A (11744735_a_at) / RFU CCDC152 (11751479_a_at) / Fold change /veh CCDC152 (11751479_a_at) / RFU FAM211A (11726209_a_at) / Fold change /veh FAM211A (11726209_a_at) / RFU RGS16 (11746705_a_at) / Fold change /veh RGS16 (11746705_a_at) / RFU VCAN (11755009_s_at) / Fold change /veh VCAN (11755009_s_at) / RFU RHOB (11743442_s_at) / Fold change /veh RHOB (11743442_s_at) / RFU RGS16 (11720943_a_at) / Fold change /veh RGS16 (11720943_a_at) / RFU RGS16 (11720944_at) / Fold change /veh RGS16 (11720944_at) / RFU, VPS4B / Fold change vs veh, VPS4B / RFU, CREB1 / Fold change vs veh, CREB1 / RFU, DNAJC13 / Fold change vs veh, DNAJC13 / RFU, GNAQ / Fold change vs veh, GNAQ / RFU, CDK5R1 / Fold change vs veh, CDK5R1 / RFU, ZRANB3 / Fold change vs veh, ZRANB3 / RFU, CUL4A / Fold change vs veh, CUL4A / RFU, CCNY / Fold change vs veh, CCNY / RFU, UFL1 / Fold change vs veh, UFL1 / RFU, COG3 / Fold change vs veh, COG3 / RFU, DIAPH2 / Fold change vs veh, DIAPH2 / RFU, SKA2 / Fold change vs veh, SKA2 / RFU, AFF3 / Fold change vs veh, AFF3 / RFU, LMF1 / Fold change vs veh, LMF1 / RFU, IPO11 / Fold change vs veh, IPO11 / RFU, DFFB / Fold change vs veh, DFFB / RFU, FOXP1 / Fold change vs veh, FOXP1 / RFU, CARD8 / Fold change vs veh, CARD8 / RFU, STRN3 / Fold change vs veh, STRN3 / RFU, ADK / Fold change vs veh, ADK / RFU, RASSF2 / Fold change vs veh, RASSF2 / RFU, WIPF1 / Fold change vs veh, WIPF1 / RFU, LARP1B / Fold change vs veh, LARP1B / RFU, RASA1 / Fold change vs veh, RASA1 / RFU, RB1 / Fold change vs veh, RB1 / RFU, PPFIA1 / Fold change vs veh, PPFIA1 / RFU, MAT2A / Fold change vs veh, MAT2A / RFU, CCT5 / Fold change vs veh, CCT5 / RFU, WDR92 / Fold change vs veh, WDR92 / RFU, CUX1 / Fold change vs veh, CUX1 / RFU, TTC7A / Fold change vs veh, TTC7A / RFU, TMEM135 / Fold change vs veh, TMEM135 / RFU, DEPTOR / Fold change vs veh, DEPTOR / RFU, CPM / Fold change vs veh, CPM / RFU, DNAJB6 / Fold change vs veh, DNAJB6 / RFU, CACNA2D3 / Fold change vs veh, CACNA2D3 / RFU, DTX4 / Fold change vs veh, DTX4 / RFU, TFCP2 / Fold change vs veh, TFCP2 / RFU, GMCL1 /// GMCL1P1 / Fold change vs veh, GMCL1 /// GMCL1P1 / RFU, AEBP2 / Fold change vs veh, AEBP2 / RFU, SNHG1 /// SNORD22 /// SNORD25 /// SNORD26 /// SNORD27 /// SNORD28 /// SNORD29 /// SNORD31 / Fold change vs veh, SNHG1 /// SNORD22 /// SNORD25 /// SNORD26 /// SNORD27 /// SNORD28 /// SNORD29 /// SNORD31 / Fold change (Aza/veh), C12orf56 (ProbeSet 11735607_a_at) / Fold change (ACY-1035/veh), C12orf56 (ProbeSet 11735607_a_at) / Fold change (Aza/veh), FGFR1OP (ProbeSet 11751329_s_at) / Fold change (ACY-1035/veh), FGFR1OP (ProbeSet 11751329_s_at) / Fold change (Aza/veh), VPS36 (ProbeSet 11739960_a_at) / Fold change (ACY-1035/veh), VPS36 (ProbeSet 11739960_a_at) / RFU SYPL1 (11715823_x_at) / Fold change /veh SYPL1 (11715823_x_at) / RFU IGFBP7 (11715501_s_at) / Fold change /veh IGFBP7 (11715501_s_at) / RFU REEP3 (11722064_at) / Fold change /veh REEP3 (11722064_at) / RFU IGLL1 (11728026_x_at) / Fold change /veh IGLL1 (11728026_x_at): dose or concentration left out as unconfirmed
Conditions: MV-4-11 cells, 48 hours

Nc1ncn([C@@H]2O[C@H](CO)[C@@H](O)[C@H]2O)c(=O)n1 [azacitidine]
RFU RGS16 (11746705_a_at): 77.87 RFU
